Assay results reported in patent publication US9551711B2, “Compositions and methods for detecting nitration of PKG-1α and methods of use thereof” (Augusta University Research Institute, Inc., priority 2013, dated 2017).

How the values were obtained:
[1] = tested on: pulmonary artery smooth muscle cells (PASMC); assay: PASMC immunocytochemistry for SM22-α and PCNA; assay type: cell-based, lamb; conditions: SIN-1 500 μM, 48 h
Method: Semi-confluent PASMC grown on a coverslip in a 6-well plate were transfected with a mammalian expression plasmid containing either a wild-type (WT)- or Y247F-PKG-1α cDNA. After 20 h, the cells were serum starved (1% FBS) for 4 h then exposed or not to SIN-1 (500 μM) for 48 h. The cells were washed with PBS, methanol fixed (5 min), and permeabilized in 0.1% PBS-Tween (20 min). The cells were then washed 3× with PBS and blocked for non-specific protein-protein interactions with 1% BSA in PBS (1 h). The antibodies, smooth muscle (SM) 22-α (5 μg/ml) or proliferating cell nuclear antigen (PCNA) (1 μg/ml) diluted in 1% BSA in PBS, were added and incubated overnight at 4° C. The cells were again washed 3× with PBS and incubated in secondary antibody (green): Alexa Fluor 488 goat anti-mouse IgG (H+L) (1/1000 dilution) for PCNA or Alexa Fluor 488 donkey anti-goat IgG (H+L) (1/1000 dilution) for SM22-α for 1 h in the dark. DAPI was used to stain the cell nuclei (blue) at a concentration of 0.5 μg/ml for 3 min. The cells were rinsed 3× with PBS, and the coverslips were mounted on the slides with ProLong Gold Antifade and analyzed with the use of a Nikon Eclipse TE 300 inverted fluorescent microscope with a 60× oil objective and a Hamamatsu digital camera.
To assess the effect of nitration on pulmonary arterial smooth muscle cell (PASMC) phenotype, PASMC were transiently transfected with expression plasmids containing WT-PKG-1α, Y247F-PKG-1α, or PDEST40 (as a control) for 20 h. Cells were then exposed or not to SIN-1 (500 μM, 48 h) and the effect on synthetic and contractile markers determined. The levels of myosin heavy chain (MYH, FIG. 3A), Calponin-1 (FIG. 3B), and Vimentin (FIG. 3C) were determined. The blots were then stripped and re-probed for β-actin to normalize for protein loading. PASMC were also subjected to immunohistochemistry using antibodies to SM22-α (5 μg/ml) and PCNA (1 μg/ml). Relevant secondary antibodies linked to Alexa Fluor 488 (green) were then applied. DAPI was also used to stain (blue) the cell nuclei.

PKG-1α [2] = assay: PKG-1α protein levels in transfected PASMC (Western blot); assay type: cell-based, lamb; conditions: SIN-1 500 μM, 48 h
Method: Therefore, the effect of these events were investigated in PASMC transiently transfected with expression plasmids containing WT- and Y247F-PKG-1α. The effect of nitration on pulmonary arterial smooth muscle cell (PASMC) growth and metabolism was determined. PASMC were transiently transfected with expression plasmids containing WT-PKG-1α, Y247F-PKG-1α or pDEST40 (as a control) for 20 h. Cells were then exposed or not to SIN-1 (500 μM, 48 h) and the effect on PKG protein levels (FIG. 2A) and activity determined (FIG. 2B).

3-NT-Y247-PKG-1α = 3-NT-Y247-PKG-1α immunoblot in transfected PASMC; assay type: cell-based, lamb; conditions: SIN-1 500 μM, 30 min
PKG-1α [3] = assay: PKG-1α nitration (IP, 3-NT immunoblot) in transfected HEK-293T cells; assay type: cell-based, human; conditions: SIN-1 500 μM, 30 min
Method: Cells were homogenized in 3× weight/volume of IP buffer (25 mM Hepes, pH 7.5, 150 mM NaCl, 1% NP-40, 10 mM MgCl2, 1 mM EDTA, 2% glycerol, supplemented with protease inhibitor). The homogenates were then centrifuged at 20,000 g at 4° C. for 20 min, the supernatant was collected, and the protein concentration was quantified by the Bio-Rad DC Protein Assay. To 1000 μg of total protein, 4 μg of antibody against PKG-1α was added; the volume was brought to 1 ml with IP buffer, and the mixture was incubated at 4° C. overnight. To precipitate the bound protein, 30 μl of protein G plus agarose suspension (EMD biosciences, Inc., San Diego, Calif.) was added, and the samples were incubated for 2 h at 4° C. To collect the bead-bound antibody, the samples were then centrifuged at 2000 g for 5 min at 4° C., the supernatant was removed, and the beads were washed 3× with 500 μl of IP buffer. To the samples, 30 μl of 2× Laemmli buffer was added, and the samples were boiled for 5 min and then resolved using 4-20% Tris-SDS-Hepes PAGE. The membrane was then probed for 3-nitrotyrosine (1:100 dilution), as described above. The IP efficiency was normalized by re-probing for PKG-1α (1:500).
To determine the role of tyrosine 247 and tyrosine 425 in mediating the nitration dependent inhibition of PKG-1α kinase activity, Y247F- and Y425F-PKG-1α mutants were generated and expressed in HEK-293T cells. HEK-293T cells were transiently transfected with expression plasmids containing WT-, Y247F-, or Y425F-PKG-1α for 48 h. […] Protein extracts were immunoprecipitated using an antibody raised against PKG-1α and the level of nitrated PKG-1α determined by probing the membranes with an antiserum raised against 3-NT. The blots were then stripped and re-probed for PKG-1α to normalize for the efficiency of the immunoprecipitation.

3-morpholinosydnonimine N-ethylcarbamide [SIN-1]
PCNA staining ([1]; WT-PKG-1α expressing PASMC): increased | SM-22α expression ([1]; WT-PKG-1α expressing PASMC): attenuated | filamentous SM22-α expression and nuclear staining of PCNA ([1]; Y247F-PKG-1α expressing PASMC): unaffected | PKG-1α protein levels (PKG-1α [2]): no effect | PKG-1α nitration (3-NT-Y247-PKG-1α levels) (3-NT-Y247-PKG-1α; PASMC transfected with WT-PKG-1α): significantly increased | nitration levels of 3-NT-Y247-PKG-1α (3-NT-Y247-PKG-1α; PASMC, second construct of FIG. 4A): no significant increases | nitration of PKG-1α (3-NT/PKG-1α) (PKG-1α [3]; HEK-293T expressing WT-PKG-1α): significantly increased | nitration of PKG-1α (3-NT/PKG-1α) (PKG-1α [3]; HEK-293T expressing Y247F-PKG-1α): no significant increases | nitration of PKG-1α (3-NT/PKG-1α) (PKG-1α [3]; HEK-293T expressing Y425F-PKG-1α): no significant increases
